Measured values: PMC9266460, “KSK-74: Dual Histamine H3 and Sigma-2 Receptor Ligand with Anti-Obesity Potential” (International Journal of Molecular Sciences, 2022)

Legend:
[1] = test system: rats fed a palatable diet; test: Model of excessive eating: body weight, calorie intake, fat pads; format: in vivo, female Wistar rats; conditions: for body weight during administration (time course): 10 mg/kg i.p. daily, persisted until the 28th day; for amount of peritoneal fat pads vs palatable diet + vehicle: KSK 10 mg/kg, end of experiment; for amount of peritoneal fat pads vs palatable diet + vehicle / body weight gain vs palatable diet + vehicle: phentermine 7 mg/kg; for calorie intake vs control group fed palatable feed: i.p. 28 days, KSK 10 mg/kg b.w., phentermine 7 mg/kg b.w.; for body weight vs palatable diet + vehicle / body weight gain vs palatable diet + vehicle: i.p. daily 4 weeks; for body weight vs palatable diet + vehicle: 1 mg/kg; for body weight gain vs palatable diet + vehicle: KSK-60/KSK-74 10 mg/kg b.w.
Description: Experiments were performed on female Wistar rats with an initial body weight of 140–160 g. The animals were housed in plastic cages (2 rats per cage) at a constant room temperature of 22 ± 2 °C, with a 12:12 h light/dark cycle. Water and food were available ad libitum. The randomly established experimental groups consisted of 6 rats for pharmacological studies and 3 rats for pharmacokinetic studies. All experiments were conducted in accordance with the Guide to the Care and Use of Experimental Animals, and were approved by the Jagiellonian University in Krakow Local Ethics Committee for Experiments on Animals (Permission No: 185/2017, 220/2019 and 223A/2019).
Female rats were randomly divided into several groups (n = 6) and studied for 4 weeks. The groups were as follows: standard diet + vehicle, palatable diet + vehicle, palatable diet + KSK-60 (1 mg/kg), palatable diet + KSK-60 (10 mg/kg), palatable diet + KSK-74 (1 mg/kg), palatable diet + KSK-74 (10 mg/kg), palatable diet + phentermine (7 mg/kg).
The studies for the 1 mg/kg b.w. and 10 mg/kg b.w. doses were performed at different times, so the parameters studied were compared to the respective control groups.
Rats fed a palatable diet had access to a diet consisting of milk chocolate with nuts, cheese, salted peanuts, and 7% condensed milk, and simultaneously to a standard feed (Labofeed B, Morawski Manufacturer Feed, Poland) for 4 weeks. The water was available ad libitum. Animals had access to palatable products, but also to the standard feed. Most importantly, feeding was not in any way forced, as in other models where animals were fed only a high-fat diet, or temporarily deprived of food (binge eating models). In the case of our model, rats decided themselves when, what, and how much to eat. The weight was evaluated daily. Calorie intake was evaluated three times a week. A palatable diet contained 100 g of peanuts—612 kcal; 100 mL of condensed milk—131 kcal; 100 g of milk chocolate—529 kcal; and 100 g of cheese—325 kcal. The standard diet contained 100 g of feed—280 kcal. Standard diet (fats 8%, carbohydrates 67%, proteins 25%) contained 100 g feed—280 kcal.
The palatable control group (palatable diet + vehicle) received vehicle (1% Tween 80 i.p., daily, for 4 weeks), while palatable test groups were injected i.p. with KSK-60 (1 mg or 10 mg/kg i.p, daily, for 4 weeks), KSK-74 (1 mg/kg or 10 mg/kg i.p, daily, for 4 weeks), or phentermine (7 mg/kg i.p., daily, for 4 weeks), respectively.
On the 31st day, 20 min after i.p. administration of heparin (5000 units/rat) and thiopental (70 mg/kg b.w.), animals were sacrificed, and plasma as well as peritoneal fat pads were collected (food was stopped for 6 h prior to organ, tissue, and plasma collection) for further study.

[2] = test system: rats fed a palatable diet; test: Plasma triglyceride and corticosterone levels in the model of excessive eating; format: in vivo, female Wistar rats; conditions: KSK 10 mg/kg, phentermine 7 mg/kg
Description: Blood was collected from the left carotid artery and then centrifuged at 600× g (15 min, 4 °C) to obtain plasma.
To determine plasma triglyceride levels, standard enzymatic and spectrophotometric tests (Cat. No 1-053-A150, Biomaxima S.A., Lublin, Poland) were used. The ELISA Kit (Item No. 501320, Cayman Chemical, Ann Arbor, MI, USA) was used to determine corticosterone levels in plasma.

adipose tissue = test: Histological examination of adipose tissue (Masson's trichrome); format: in vivo, female Wistar rats; conditions: palatable diet; for inflammatory infiltrates in adipose tissue (histological description) / number of adipocytes per 0.1 mm^2 of cross-sectional area / inflammatory index of the adipose tissue: KSK 10 mg/kg, phentermine 7 mg/kg; for number of adipocytes per 0.1 mm^2 of cross-sectional area: means ± SD, n = 6; for inflammatory index of the adipose tissue: standard diet + vehicle 0.5 ± 0.34
Description: Adipose tissue samples were prepared for histology using Masson’s trichrome stain (Merck) by fixation in 4% formaldehyde, dehydration in graded alcohol, and embedded in paraffin. The tissue samples were then sectioned using a microtome of 5 μm thickness. Six random fields from each section were analyzed in a blinded manner with an Olympus BX41 light microscope (Olympus, Tokyo, Japan) at magnifications of ×20, ×40 and ×100, and digital images were captured with an Olympus UC90 color camera. The quantitation of the number of adipocytes was performed in eight fields/slide with ×100 objective using an image analysis system: CellSensDimension (Olympus, Tokyo, Japan). The numerical density of the adipocytes was obtained by counting the total number of adipocytes per high-power field ([…]), and then this number was converted to 0.1 mm^2. According to stereometric rules, adipocytes tangent to the left and top edges of the image field were not counted. A semi-quantitative scale was used to assess the inflammatory response in adipose tissue. The following were evaluated on a subjective scale: inflammatory cell infiltration between adipocytes (0—normal, 1—few cells, 2—local clusters, and 3—extensive infiltrates), perivascular infiltration of immune cells (0—normal, 1—few cells, and 2—ring of inflammatory cells), widening of the septum (0—normal and 1—widening), and capillary congestion (0—normal and 1—congestion). A sum calculated from independently assessed values was calculated for each animal as an index of inflammation.

[3] = test system: peritoneal adipose tissue; test: Leptin, resistin, IL-6 and MCP-1 levels in adipose tissue (ELISA); format: in vivo, female Wistar rats; conditions: for leptin levels in adipose tissue: vs palatable diet + vehicle unless worded otherwise
Description: The frozen peritoneal adipose tissue was weighed, and homogenates were prepared by homogenizing 1 g of tissue in 4 mL of 0.1 M phosphate buffer, pH 7.4, using the IKA-ULTRA-TURRAX T8 homogenizer. The adipose tissue homogenates were then used for biochemical assays.
To determine the levels of leptin, resistin, IL-6, and MCP-1 in adipose tissue, the standard ELISA Kit (Cat. No E0561Ra, Cat. No E0211Ra, Cat. No E0135Ra, Cat. No E0193Ra, Bioassay Technology Laboratory, Shanghai, China) was used. To determine the levels of protein, a standard spectrophotometric test (Cat. No 1-008-B210, Biomaxima S.A. Lublin, Poland) was used.

sigma-1 receptor = target: sigma-1 receptor; parameters: method as in PMID 34908391; conditions: Figure 1; read-out: σ1R Ki; cited from earlier work
[4] = KSK 10 mg/kg i.p., phentermine 7 mg/kg

Row | Compound | body weight during administration (time course) [1] | amount of peritoneal fat pads vs palatable diet + vehicle [1] | calorie intake vs control group fed palatable feed [1] | body weight vs palatable diet + vehicle [1] | body weight gain vs palatable diet + vehicle [1] | plasma triglyceride levels vs palatable diet + vehicle [2] | inflammatory infiltrates in adipose tissue (histological description) (adipose tissue) | number of adipocytes per 0.1 mm^2 of cross-sectional area (adipose tissue) [per 0.1 mm^2] | inflammatory index of the adipose tissue (adipose tissue) | number of rats, Capillary Congestion grade 0-Normal (adipose tissue; n = 6 per group) | number of rats, Capillary Congestion grade 1-Congestion (adipose tissue; n = 6 per group) | number of rats, Inflammatory Cell Infiltration grade 1-Few Cells (adipose tissue; n = 6 per group) | number of rats, Inflammatory Cell Infiltration grade 2-Local Clusters (adipose tissue; n = 6 per group) | number of rats, Perivascular Infiltration grade 1-Few Cells (adipose tissue; n = 6 per group) | number of rats, Perivascular Infiltration grade 2-Ring of Cells (adipose tissue; n = 6 per group) | number of rats, Widening of the Septum grade 0-Normal (adipose tissue; n = 6 per group) | number of rats, Widening of the Septum grade 1-Widening (adipose tissue; n = 6 per group) | leptin levels in adipose tissue [3, 4] | Ki (sigma-1 receptor) [nM] | other results
1 | CCC(=O)c1ccc(OCCCCCCN2CCN(c3ccncc3)CC2)cc1 [KSK-60] | significant inhibition of body weight gain around the 10th day | fewer peritoneal fat pads | did not significantly influence the amount of calories consumed | No differences in body weight | gained significantly less weight | No differences in plasma triglyceride levels | Many inflammatory cells infiltrated the area of adipocytes and the perivascular area | 18.02 ± 1.38 | 4.5 ± 0.80 | 2 | 4 | 2 | 4 | 2 | 4 | 1 | 5 | maintained leptin levels at the same level as rats in the control group fed standard feed | 248 | 
2 | CCC(=O)c1ccc(OCCCCCCCCN2CCN(c3ccncc3)CC2)cc1 [KSK-74] | significant inhibition of body weight gain around the 10th day | fewer fat pads | did not significantly influence the amount of calories consumed | No differences in body weight | gained significantly less weight | lower plasma triglyceride levels | slightly less inflammatory infiltrates | 34.78 ± 4.78 | comparable to the standard control | 5 | 1 | 3 | 2 | 1 | 3 | 3 | 3 | reduced levels | 274 | milk intake vs control group fed palatable feed ([1]; 10 mg/kg b.w.): consumed significantly less milk in the first and second weeks; peanuts intake vs control group fed palatable feed ([1]; 10 mg/kg b.w.): significantly less peanuts in the fourth week; number of rats, Inflammatory Cell Infiltration grade 0-Normal (adipose tissue; n = 6 per group): 1; number of rats, Perivascular Infiltration grade 0-Normal (adipose tissue; n = 6 per group): 2; IL-6 levels in adipose tissue vs palatable diet + vehicle ([3]; 10 mg/kg): reduced; MCP-1 level in adipose tissue vs palatable diet + vehicle ([3]; 10 mg/kg b.w.): decreased the level of MCP-1; resistin levels in adipose tissue vs palatable diet + vehicle [3, 4]: reduced levels
